The text below walks through data of US9688683B2, “Substituted condensed pyrimidine compounds” (GRÜNENTHAL GMBH, priority 2013, dated 2017).

This assay addresses human PDE4B1 (Homo sapiens (Human), UniProt Q07343). Nature of the assay: cAMP HTRF assay to determine the activity of hPDE4B1. Format: biochemical. Conditions: for inhibition at 3 µM: inhibition of PDE4B at a test substrate concentration of 3 μM. How it is done:
A: Determination of the PDE4B IC50 Values with a cAMP HRTF® Assay to Determine the Activity of hPDE4B1
The inhibiting effect of the compounds on the enzyme activity of human PDE4B1 is measured by the quantification of 5′-AMP, which is formed from 3′,5′-adenosine monophosphate (cAMP). Human recombinant enzyme, expressed in Sf9 cells, and the HTRF (homogeneous time-resolved fluorescence) detection method are used in the assay.
The test compound or water (control) is mixed with the human recombinant PDE4B1 enzyme (4.8 U) in a buffer consisting of 44.4 mM tris-HCl, 5.28 mM MgCl2, 2.64 mM DTT and 0.044% Tween 20 (pH 7.8). After adding the cAMP enzyme substrate (final concentration 40 nM) the mixture is incubated for 30 minutes at room temperature. Then a fluorescence acceptor (Dye2 marked with cAMP), a fluorescence donor (anti-cAMP antibody marked with a europium cryptate) and the non-specific phosphodiesterase inhibitor IBMX (3-isobutyl-1-methylxanthine; final concentration 1 mM) are added. After 60 minutes the fluorescence transfer, which correlates with the amount of remaining cAMP, is measured with a microplate reader (Rubystar, BMG) at λex=337 nm, λem=620 nm and λem=665 nm. The enzyme activity is calculated from the quotient formed from the measured signal at 665 nm and that at 620 nm. The result is expressed as the percentage inhibition of enzyme activity of the control (without PDE4 inhibitor) (literature: N. Saldou et al., Comparison of recombinant human PDE4 isoforms: interaction with substrate and inhibitors, Cell. Signal. Vol. 10, No. 6, 427-440, 1998). The enzyme is omitted for measurement of the basal control.
For orientation: Time-resolved FRET reads energy transfer from a long-lived donor to a nearby acceptor.

Chain of human PDE4B1 (Q07343 whole entry): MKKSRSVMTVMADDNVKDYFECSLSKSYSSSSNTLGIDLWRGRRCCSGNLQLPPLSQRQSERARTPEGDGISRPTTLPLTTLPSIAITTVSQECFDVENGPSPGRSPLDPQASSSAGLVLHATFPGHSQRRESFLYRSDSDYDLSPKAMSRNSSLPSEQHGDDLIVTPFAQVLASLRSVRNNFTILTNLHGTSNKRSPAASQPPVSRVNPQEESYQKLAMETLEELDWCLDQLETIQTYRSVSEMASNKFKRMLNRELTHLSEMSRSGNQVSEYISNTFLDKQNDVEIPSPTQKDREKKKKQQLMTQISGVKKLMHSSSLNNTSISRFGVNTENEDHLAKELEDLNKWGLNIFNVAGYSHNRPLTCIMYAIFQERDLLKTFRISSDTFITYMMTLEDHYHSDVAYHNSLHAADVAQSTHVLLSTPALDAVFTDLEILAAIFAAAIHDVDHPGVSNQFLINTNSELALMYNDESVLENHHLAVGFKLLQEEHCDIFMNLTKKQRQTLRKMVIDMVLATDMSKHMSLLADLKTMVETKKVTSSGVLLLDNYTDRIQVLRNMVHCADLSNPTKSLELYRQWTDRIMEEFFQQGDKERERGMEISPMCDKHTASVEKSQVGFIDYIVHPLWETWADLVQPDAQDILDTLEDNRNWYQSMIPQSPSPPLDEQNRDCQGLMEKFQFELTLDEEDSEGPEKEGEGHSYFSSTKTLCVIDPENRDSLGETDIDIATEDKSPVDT

A word on the IC50: it is the point on the concentration scale where inhibition reaches its midpoint. For the compound `CCc1nc(-c2cccnc2)nc2c1ccn2-c1cccc(OCC(=O)N(C)C)c1` [Compound 83, 2-(3-(4-ethyl-2-(pyridin-3-yl)-7H-pyrrolo[2,3-d]pyrimidin-7-yl)phenoxy)-N,N-dimethylacetamide], the IC50 (human recombinant PDE4B1 expressed in Sf9 cells, cAMP 40 nM, N=1-2, n=2, read-out: PDE4B IC50-value) is less than 1000 nM.

Usually inhibition stands for the change of the read-out against control, counted positive when it falls. Read a high inhibition as a strong effect. Consider `CCc1nc(-c2ccc3occc3c2)nc2c1CCN2c1ccc(C(=O)O)cc1` [Compound 84, 4-(2-(Benzofuran-5-yl)-4-ethyl-5H-pyrrolo[2,3-d]pyrimidin-7(6H)-yl)benzoic acid], for which 3 µM produced 45% inhibition.

As for `CCc1nc(-c2ccc(OC)c(F)c2)nc2c1ccn2-c1cccc(OCC(=O)N(C)C)c1` [Compound 85, 2-(3-(4-Ethyl-2-(3-fluoro-4-methoxyphenyl)-7H-pyrrolo[2,3-d]pyrimidin-7-yl)phenoxy)-N,N-dimethylacetamide], the inhibition at 3 µM was determined as 43%.

The compound `CCc1nc(-c2ccc(F)c(OC)c2)nc2c1CCN2c1ccc(CC(=O)O)cc1` [Compound 86, 2-(4-(4-Ethyl-2-(4-fluoro-3-methoxyphenyl)-5H-pyrrolo[2,3-d]pyrimidin-7(6H)-yl)phenyl)acetic acid] came in with an inhibition at 3 µM of 47%.

As to `CCc1nc(-c2ccc3c(c2)OCO3)nc2c1ccn2-c1cccc(OCC(=O)N(C)C)c1` [Compound 87, 2-(3-(2-(Benzo[d][1,3]dioxol-5-yl)-4-ethyl-7H-pyrrolo[2,3-d]pyrimidin-7-yl)phenoxy)-N,N-dimethylacetamide], testing at 3 µM gave an inhibition of 52%.

Take `CCc1nc(-c2ccc3ncsc3c2)nc2c1ccn2-c1cccc(OCC(=O)N(C)C)c1` [Compound 88, 2-(3-(2-(Benzo[d]thiazol-6-yl)-4-ethyl-7H-pyrrolo[2,3-d]pyrimidin-7-yl)phenoxy)-N,N-dimethylacetamide]: the inhibition at 3 µM stood at 51%.

In turn, `CCc1nc(-c2ccc3occc3c2)nc2c1CCN2c1ccc(CC(=O)O)cc1` [Compound 89, 2-(4-(2-(Benzofuran-5-yl)-4-ethyl-5H-pyrrolo[2,3-d]pyrimidin-7(6H)-yl)phenyl)acetic acid] came in with an inhibition at 3 µM of 63%.

Consider `CCc1nc(-c2ccc(OC(F)F)cc2)nc2c1CCN2c1ccc(CC(=O)O)cc1` [Compound 90, 2-(4-(2-(4-(Difluoromethoxy)phenyl)-4-ethyl-5H-pyrrolo[2,3-d]pyrimidin-7(6H)-yl)phenyl)acetic acid], for which the inhibition at 3 µM was 58%.

Consider `CCc1nc(-c2ccc(S(C)(=O)=O)cc2)nc2c1ccn2-c1cccc(OCC(=O)N(C)C)c1` [Compound 91, 2-(3-(4-Ethyl-2-(4-(methylsulfonyl)phenyl)-7H-pyrrolo[2,3-d]pyrimidin-7-yl)phenoxy)-N,N-dimethylacetamide], for which the inhibition at 3 µM turned out to be 52%.

In turn, `CCc1nc(-c2ccc(OC)c(Cl)c2)nc2c1ccn2-c1cccc(OCC(=O)N(C)C)c1` [Compound 92, 2-(3-(2-(3-Chloro-4-methoxyphenyl)-4-ethyl-7H-pyrrolo[2,3-d]pyrimidin-7-yl)phenoxy)-N,N-dimethylacetamide] registered an inhibition at 3 µM of 67%.

For `CCc1nc(-c2ccc3ncsc3c2)nc2c1CCN2c1ccc(CC(=O)O)cc1` [Compound 93, 2-(4-(2-(Benzo[d]thiazol-6-yl)-4-ethyl-5H-pyrrolo[2,3-d]pyrimidin-7(6H)-yl)phenyl)acetic acid], at 3 µM the inhibition was 57%.

With `CCc1nc(-c2ccc(OC)cc2)nc2c1ccn2-c1cccc(OCC(=O)N(C)C)c1` [Compound 94, 2-(3-(4-Ethyl-2-(4-methoxyphenyl)-7H-pyrrolo[2,3-d]pyrimidin-7-yl)phenoxy)-N,N-dimethylacetamide], the inhibition at 3 µM stood at 54%.

Compound `CCOc1ccc(-c2nc(CC)c3ccn(-c4cccc(OCC(=O)N(C)C)c4)c3n2)cc1` [Compound 95, 2-(3-(2-(4-Ethoxyphenyl)-4-ethyl-7H-pyrrolo[2,3-d]pyrimidin-7-yl)phenoxy)-N,N-dimethylacetamide] gave an inhibition at 3 µM of 41%.

With `CCOc1ccc(-c2nc(CC)c3c(n2)N(c2ccc(CC(=O)O)cc2)CC3)cc1` [Compound 96, 2-(4-(2-(4-Ethoxyphenyl)-4-ethyl-5H-pyrrolo[2,3-d]pyrimidin-7(6H)-yl)phenyl)acetic acid], the inhibition at 3 µM amounted to 39%.

For the compound `CCc1nc(-c2cncnc2)nc2c1ccn2-c1cccc(OCC(=O)N(C)C)c1` [Compound 97, 2-(3-(4-Ethyl-2-(pyrimidin-5-yl)-7H-pyrrolo[2,3-d]pyrimidin-7-yl)phenoxy)-N,N-dimethylacetamide], 3 µM produced 67% inhibition.

`CCOc1cccc(-c2nc(CC)c3c(n2)N(c2ccc(C(=O)O)cc2)CC3)c1` [Compound 98, 4-(2-(3-Ethoxyphenyl)-4-ethyl-5H-pyrrolo[2,3-d]pyrimidin-7(6H)-yl)benzoic acid] returned an inhibition at 3 µM of 43%.

The compound `CCc1nc(-c2ccc(F)c(Cl)c2)nc2c1CCN2c1ccc(CC(=O)O)cc1` [Compound 99, 2-(4-(2-(3-Chloro-4-fluorophenyl)-4-ethyl-5H-pyrrolo[2,3-d]pyrimidin-7(6H)-yl)phenyl)acetic acid] registered an inhibition at 3 µM of 54%.
